Legend:
Experiment in all cases: Ba/F3 drug screening, Cell Titer Glo, IC50 Mut/WT
Format in all cases: cell-based
EGFR L833F = target: T1, EGFR L833F (Homo sapiens, UniProt P00533, L833F); details: Classical-Like, 72 hours
T1 construct: expressed in transfected cells; host or cells: Ba/F3 cells, retroviral pBabe-Puro vector

EGFR L833V = target: T2, EGFR L833V (Homo sapiens, UniProt P00533, L833V); details: Classical-Like, 72 hours
T2 construct: expressed in transfected cells; host or cells: Ba/F3 cells, retroviral pBabe-Puro vector

EGFR L858R S784F = target: T3, EGFR L858R S784F (Homo sapiens, UniProt P00533, L858R/S784F); details: Classical-Like, 72 hours
T3 construct: expressed in transfected cells; host or cells: Ba/F3 cells, retroviral pBabe-Puro vector (vector made by GeneScript from EGFR L858R)

EGFR S811F = target: T4, EGFR S811F (Homo sapiens, UniProt P00533, S811F); details: Classical-Like, 72 hours
T4 construct: expressed in transfected cells; host or cells: Ba/F3 cells, retroviral pBabe-Puro vector (vector made by GeneScript from EGFR WT)
Method: Data represent the ratio of the IC50 value for a given TKI for cells with a classical-like EGFR mutation to the IC50 value for cells with wildtype EGFR.
(§1) Ba/F3 cell generation, drug screening, and IC50 approximations. Ba/F3 cells were obtained as a gift from Dr. Gordon Mills (MD Anderson Cancer Center), and maintained in RPMI (Sigma) containing 10% FBS, 1% penicillin/streptomycin, and 10 ng/ml recombinant mIL-3 (R&D Biosystems). To establish stable Ba/F3 cell lines, Ba/F3 cells were transduced with retroviruses containing mutant EGFR plasmids for 12-24 hours.
After 48-72 hours of transduction, 2 μg/ml puromycin (Invitrogen) was added to Ba/F3 cell lines in complete RPMI. To select for EGFR positive cell lines, cells were stained with PE-EGFR (Biolegend) and sorted by FACS. After sorting, EGFR positive cells were maintained in RPMI containing 10% FBS, 1% penicillin/streptomycin, and 1 ng/ml EGF to support cell viability. […] Shortly, cells were plated in 384-well plates (Greiner Bio-One) at 2000-3000 cells per well in technical triplicate. Seven different concentrations of TKIs or DMSO vehicle were added to reach a final volume of 40 μL per well. After 72 hours, 11 μL of Cell Titer Glo (Promega) was added to each well. Plates were incubated for a minimum of 10 minutes, and bioluminescence was determined using a FLUOstar OPTIMA plate reader (BMG LABTECH). Raw bioluminescence values were normalized to DMSO control treated cells, and values were plotted in GraphPad Prism. […] Drug screens were performed in technical triplicate on each plate and either duplicate or triplicate biological replicates.

EGFR A767insASV = target: T5, EGFR A767insASV (Homo sapiens, UniProt P00533, DUP767-769); details: Ex20, 72 hours
T5 construct: expressed in transfected cells; host or cells: Ba/F3 cells, retroviral pBabe-Puro vector

EGFR D770insNPG = target: T6, EGFR D770insNPG (Homo sapiens, UniProt P00533, INS770NPG); details: Ex20, 72 hours
T6 construct: expressed in transfected cells; host or cells: Ba/F3 cells, retroviral pBabe-Puro vector

EGFR H773insNPH = target: T7, EGFR H773insNPH (Homo sapiens, UniProt P00533, INS773NPH); details: Ex20, 72 hours
T7 construct: expressed in transfected cells; host or cells: Ba/F3 cells, retroviral pBabe-Puro vector
Method: Data represent the ratio of the IC50 value for a given TKI for cells with an ex20ins EGFR mutation to the IC50 value for cells with wildtype EGFR.
as §1
After 48-72 hours of transduction, 2 μg/ml puromycin (Invitrogen) was added to Ba/F3 cell lines in complete RPMI. To select for EGFR positive cell lines, cells were stained with PE-EGFR (Biolegend) and sorted by FACS. After sorting, EGFR positive cells were maintained in RPMI containing 10% FBS, 1% penicillin/streptomycin, and 1 ng/ml EGF to support cell viability. Drug screening was performed as previously described^41,42. Shortly, cells were plated in 384-well plates (Greiner Bio-One) at 2000-3000 cells per well in technical triplicate. Seven different concentrations of TKIs or DMSO vehicle were added to reach a final volume of 40 μL per well. After 72 hours, 11 μL of Cell Titer Glo (Promega) was added to each well. Plates were incubated for a minimum of 10 minutes, and bioluminescence was determined using a FLUOstar OPTIMA plate reader (BMG LABTECH). Raw bioluminescence values were normalized to DMSO control treated cells, and values were plotted in GraphPad Prism. […] Drug screens were performed in technical triplicate on each plate and either duplicate or triplicate biological replicates. […] Statistical differences between groups were determined by ANOVA as described in the figure legends.

[1] = target: T8, EGFR L747_K754del insATSPE (Homo sapiens, UniProt P00533, DEL747-749/K754E); details: T790M-like-3S, 72 hours
T8 construct: expressed in transfected cells; host or cells: Ba/F3 cells, retroviral pBabe-Puro vector

EGFR S768I/T790M = target: T9, EGFR S768I/T790M (Homo sapiens, UniProt P00533, S768I/T790M); details: T790M-like-3S, 72 hours
T9 construct: expressed in transfected cells; host or cells: Ba/F3
Method: (§2) Data represent the ratio of the IC50 value for a given TKI for cells with a T790M-like-3S EGFR mutation to the IC50 value for cells with wildtype EGFR.
as §1
(§3) After 48-72 hours of transduction, 2 μg/ml puromycin (Invitrogen) was added to Ba/F3 cell lines in complete RPMI. To select for EGFR positive cell lines, cells were stained with PE-EGFR (Biolegend) and sorted by FACS. After sorting, EGFR positive cells were maintained in RPMI containing 10% FBS, 1% penicillin/streptomycin, and 1 ng/ml EGF to support cell viability. Drug screening was performed as previously described^41,42. Shortly, cells were plated in 384-well plates (Greiner Bio-One) at 2000-3000 cells per well in technical triplicate. Seven different concentrations of TKIs or DMSO vehicle were added to reach a final volume of 40 μL per well. After 72 hours, 11 μL of Cell Titer Glo (Promega) was added to each well. Plates were incubated for a minimum of 10 minutes, and bioluminescence was determined using a FLUOstar OPTIMA plate reader (BMG LABTECH). Raw bioluminescence values were normalized to DMSO control treated cells, and values were plotted in GraphPad Prism. […] Drug screens were performed in technical triplicate on each plate and either duplicate or triplicate biological replicates.

EGFR L858R T790M V843I = target: T10, EGFR L858R T790M V843I (Homo sapiens, UniProt P00533, L858R/T790M/V843I); details: T790M-like-3S, 72 hours
T10 construct: expressed in transfected cells; host or cells: Ba/F3

EGFR Ex19del/T790M/G724S = target: T11, EGFR Ex19del/T790M/G724S (Homo sapiens, UniProt P00533, DEL746-750/G724S/T790M); details: T790M-like-3S, 72 hours
T11 construct: expressed in transfected cells; host or cells: Ba/F3
Method: as §2, §1, §3

EGFR L718Q T790M = target: T12, EGFR L718Q T790M (Homo sapiens, UniProt P00533, L718Q/T790M); details: T790M-like-3R, 72 hours
T12 construct: expressed in transfected cells; host or cells: Ba/F3

EGFR L858R/T790M/L718Q = target: T13, EGFR L858R/T790M/L718Q (Homo sapiens, UniProt P00533, L718Q/L858R/T790M); details: T790M-like-3R, 72 hours
T13 construct: expressed in transfected cells; host or cells: Ba/F3
Method: (§4) Data represent the ratio of the IC50 value for a given TKI for cells with a T790M-like-3R EGFR mutation to the IC50 value for cells with wildtype EGFR.
as §1
(§5) After 48-72 hours of transduction, 2 μg/ml puromycin (Invitrogen) was added to Ba/F3 cell lines in complete RPMI. To select for EGFR positive cell lines, cells were stained with PE-EGFR (Biolegend) and sorted by FACS. After sorting, EGFR positive cells were maintained in RPMI containing 10% FBS, 1% penicillin/streptomycin, and 1 ng/ml EGF to support cell viability. […] Shortly, cells were plated in 384-well plates (Greiner Bio-One) at 2000-3000 cells per well in technical triplicate. Seven different concentrations of TKIs or DMSO vehicle were added to reach a final volume of 40 μL per well. After 72 hours, 11 μL of Cell Titer Glo (Promega) was added to each well. Plates were incubated for a minimum of 10 minutes, and bioluminescence was determined using a FLUOstar OPTIMA plate reader (BMG LABTECH). Raw bioluminescence values were normalized to DMSO control treated cells, and values were plotted in GraphPad Prism. […] Drug screens were performed in technical triplicate on each plate and either duplicate or triplicate biological replicates. […] Statistical differences between groups were determined by ANOVA as described in the figure legends.

EGFR L858R T790M L718V = target: T14, EGFR L858R T790M L718V (Homo sapiens, UniProt P00533, L718V/L858R/T790M); details: T790M-like-3R, 72 hours
T14 construct: expressed in transfected cells; host or cells: Ba/F3
Method: as §4, §1, §5

EGFR E709A G719S = target: T15, EGFR E709A G719S (Homo sapiens, UniProt P00533, E709A/G719S)
T15 construct: expressed in transfected cells; host or cells: Ba/F3

EGFR L718Q = target: T16, EGFR L718Q (Homo sapiens, UniProt P00533, L718Q)
T16 construct: expressed in transfected cells; host or cells: Ba/F3

EGFR K757R = target: T17, EGFR K757R (Homo sapiens, UniProt P00533, K757R)
T17 construct: expressed in transfected cells; host or cells: Ba/F3

EGFR S768I = target: T18, EGFR S768I (Homo sapiens, UniProt P00533, S768I)
T18 construct: expressed in transfected cells; host or cells: Ba/F3

EGFR V769L = target: T19, EGFR V769L (Homo sapiens, UniProt P00533, V769L)
T19 construct: expressed in transfected cells; host or cells: Ba/F3

EGFR V774M = target: T20, EGFR V774M (Homo sapiens, UniProt P00533, V774M)
T20 construct: host or cells: Ba/F3
Method: (§6) Data represent the ratio of the IC50 value for a given TKI for cells with a PACC EGFR mutation to the IC50 value for cells with wildtype EGFR.
as §1, §3

EGFR R776H = target: T21, EGFR R776H (Homo sapiens, UniProt P00533, R776H)
T21 construct: host or cells: Ba/F3
Method: as §6, §1, §3

EGFR R776C = target: T22, EGFR R776C (Homo sapiens, UniProt P00533, R776C)
T22 construct: host or cells: Ba/F3

EGFR L858R L718Q = target: T23, EGFR L858R L718Q (Homo sapiens, UniProt P00533, L718Q/L858R)
T23 construct: host or cells: Ba/F3

EGFR Ex19del/L792H = target: T24, EGFR Ex19del/L792H (Homo sapiens, UniProt P00533, DEL746-750/L792H)
T24 construct: expressed in transfected cells; host or cells: Ba/F3

EGFR L858R G724S = target: T25, EGFR L858R G724S (Homo sapiens, UniProt P00533, G724S/L858R)
T25 construct: expressed in transfected cells; host or cells: Ba/F3 (retroviral transduction, pBabe-Puro based vectors)

EGFR Ex19del T854I = target: T26, EGFR Ex19del T854I (Homo sapiens, UniProt P00533, DEL746-750/T854I)
T26 construct: expressed in transfected cells; host or cells: Ba/F3 (retroviral transduction, pBabe-Puro based vectors)
Method: as §6, §1, §3

Row | SMILES | ratio of IC50 for cells with mutant EGFR to IC50 for cells with wildtype EGFR (Mut/WT) (EGFR L833F) | ratio of IC50 for cells with mutant EGFR to IC50 for cells with wildtype EGFR (Mut/WT) (EGFR L833V) | ratio of IC50 for cells with mutant EGFR to IC50 for cells with wildtype EGFR (Mut/WT) (EGFR L858R S784F) | ratio of IC50 for cells with mutant EGFR to IC50 for cells with wildtype EGFR (Mut/WT) (EGFR S811F) | ratio of IC50 for cells with mutant EGFR to IC50 for cells with wildtype EGFR (Mut/WT) (EGFR A767insASV) | ratio of IC50 for cells with mutant EGFR to IC50 for cells with wildtype EGFR (Mut/WT) (EGFR D770insNPG) | ratio of IC50 for cells with mutant EGFR to IC50 for cells with wildtype EGFR (Mut/WT) (EGFR H773insNPH) | ratio of IC50 for cells with mutant EGFR to IC50 for cells with wildtype EGFR (Mut/WT) [1] | ratio of IC50 for cells with mutant EGFR to IC50 for cells with wildtype EGFR (Mut/WT) (EGFR S768I/T790M) | ratio of IC50 for cells with mutant EGFR to IC50 for cells with wildtype EGFR (Mut/WT) (EGFR L858R T790M V843I) | ratio of IC50 for cells with mutant EGFR to IC50 for cells with wildtype EGFR (Mut/WT) (EGFR Ex19del/T790M/G724S) | ratio of IC50 for cells with mutant EGFR to IC50 for cells with wildtype EGFR (Mut/WT) (EGFR L718Q T790M) | ratio of IC50 for cells with mutant EGFR to IC50 for cells with wildtype EGFR (Mut/WT) (EGFR L858R/T790M/L718Q) | ratio of IC50 for cells with mutant EGFR to IC50 for cells with wildtype EGFR (Mut/WT) (EGFR L858R T790M L718V) | other results
1 | COc1cc2ncnc(Nc3ccc(F)c(Cl)c3)c2cc1NC(=O)/C=C/CN1CCCCC1 [Dacomitinib] | 0.1863 | 0.06272 | 0.06448 | 0.1673 | 3.057 | 5.404 | 1.645 | 5.465 | 1.282 | 20.06 | 9.95 | 4.784 | 45.78 | 20.65 | ratio of IC50 for cells with mutant EGFR to IC50 for cells with wildtype EGFR (Mut/WT) (EGFR E709A G719S; PACC, E709A G719S, Ba/F3, 72 hours): 0.001614; ratio of IC50 for cells with mutant EGFR to IC50 for cells with wildtype EGFR (Mut/WT) (EGFR L718Q; PACC, L718Q, Ba/F3, 72 hours): 0.3828; ratio of IC50 for cells with mutant EGFR to IC50 for cells with wildtype EGFR (Mut/WT) (EGFR K757R; PACC, K757R, Ba/F3, 72 hours): 0.04087; ratio of IC50 for cells with mutant EGFR to IC50 for cells with wildtype EGFR (Mut/WT) (EGFR S768I; PACC, S768I, Ba/F3, 72 hours): 17.66; ratio of IC50 for cells with mutant EGFR to IC50 for cells with wildtype EGFR (Mut/WT) (EGFR V769L; PACC, V769L, Ba/F3, 72 hours): 0.1402; ratio of IC50 for cells with mutant EGFR to IC50 for cells with wildtype EGFR (Mut/WT) (EGFR V774M; PACC, V774M, Ba/F3, 72 hours): 0.04513; ratio of IC50 for cells with mutant EGFR to IC50 for cells with wildtype EGFR (Mut/WT) (EGFR R776H; PACC, R776H, Ba/F3, 72 hours): 0.001367; ratio of IC50 for cells with mutant EGFR to IC50 for cells with wildtype EGFR (Mut/WT) (EGFR R776C; PACC, R776C, Ba/F3, 72 hours): 0.1215; ratio of IC50 for cells with mutant EGFR to IC50 for cells with wildtype EGFR (Mut/WT) (EGFR L858R L718Q; PACC, L858R L718Q, Ba/F3, 72 hours): 0.051; ratio of IC50 for cells with mutant EGFR to IC50 for cells with wildtype EGFR (Mut/WT) (EGFR Ex19del/L792H; PACC, Ex19del/L792H, Ba/F3, 72 hours): 0.2436; ratio of IC50 for cells with mutant EGFR to IC50 for cells with wildtype EGFR (Mut/WT) (EGFR L858R G724S; PACC, L858R G724S, Ba/F3, 72 hours): 0.0005712; ratio of IC50 for cells with mutant EGFR to IC50 for cells with wildtype EGFR (Mut/WT) (EGFR Ex19del T854I; PACC, Ex19del T854I, Ba/F3, 72 hours): 0.4127
2 | C=CC(=O)Nc1cc(Nc2nccc(-n3cc(CN(C)C)c(-c4ccccc4)n3)n2)c(OC)cc1N1CCOCC1 [Lazertinib] | 0.08625 | 0.006132 | 0.02456 | 0.01158 | 10.93 | 4.93 | 5.102 | 2.781 | 0.5236 | 0.06612 | 0.02984 | 3.513 | 11.87 | 0.5404 | ratio of the IC50 value for cells with a PACC EGFR mutation to the IC50 value for cells with wildtype EGFR (EGFR E709A G719S; Ba/F3 cells, EGFR E709A G719S (PACC), Mut/WT): 0.06878; ratio of the IC50 value for cells with a PACC EGFR mutation to the IC50 value for cells with wildtype EGFR (EGFR L718Q; Ba/F3 cells, EGFR L718Q (PACC), Mut/WT): 5.442; ratio of the IC50 value for cells with a PACC EGFR mutation to the IC50 value for cells with wildtype EGFR (EGFR K757R; Ba/F3 cells, EGFR K757R (PACC), Mut/WT): 0.349; ratio of the IC50 value for cells with a PACC EGFR mutation to the IC50 value for cells with wildtype EGFR (EGFR S768I; Ba/F3 cells, EGFR S768I (PACC), Mut/WT): 1.26; ratio of the IC50 value for cells with a PACC EGFR mutation to the IC50 value for cells with wildtype EGFR (EGFR V769L; Ba/F3 cells, EGFR V769L (PACC), Mut/WT): 1.618; ratio of the IC50 value for cells with a PACC EGFR mutation to the IC50 value for cells with wildtype EGFR (EGFR V774M; Ba/F3 cells, EGFR V774M (PACC), Mut/WT): 0.9635; ratio of the IC50 value for cells with a PACC EGFR mutation to the IC50 value for cells with wildtype EGFR (EGFR R776H; Ba/F3 cells, EGFR R776H (PACC), Mut/WT): 0.6077; ratio of the IC50 value for cells with a PACC EGFR mutation to the IC50 value for cells with wildtype EGFR (EGFR R776C; Ba/F3 cells, EGFR R776C (PACC), Mut/WT): 1.504; ratio of the IC50 value for cells with a PACC EGFR mutation to the IC50 value for cells with wildtype EGFR (EGFR L858R L718Q; Ba/F3 cells, EGFR L858R L718Q (PACC), Mut/WT): 3.064; ratio of the IC50 value for cells with a PACC EGFR mutation to the IC50 value for cells with wildtype EGFR (EGFR Ex19del/L792H; Ba/F3 cells, EGFR Ex19del/L792H (PACC), Mut/WT): 0.001792; ratio of the IC50 value for cells with a PACC EGFR mutation to the IC50 value for cells with wildtype EGFR (EGFR L858R G724S; Ba/F3 cells, EGFR L858R G724S (PACC), Mut/WT): 0.0004647; ratio of the IC50 value for cells with a PACC EGFR mutation to the IC50 value for cells with wildtype EGFR (EGFR Ex19del T854I; Ba/F3 cells, EGFR Ex19del T854I (PACC), Mut/WT): 1.44
